Experimental findings from US10774049B2, “PU.1 inhibitors” (Albert Einstein College of Medicine, priority 2016, dated 2020) are described below.

Test [1] has as its system PU.1 URE−/− AML cells. Put plainly: Apoptosis (Annexin-V+Dapi−) in PU.1 URE−/− AML cells. The following applies: murine PU.1 URE−/− AML cells, 48 h, vs vehicle. Type of test: cell-based. The method, then: (§1) FIG. 2A-2F. PU.1 inhibition decreases cell growth and increases apoptosis of PU.1^1″ leukemic cells. (A) Chemical structures of heterocyclic diamidines DB1976, DB2115 and DB2313 used in this study. (B) Relative cell viability of URE−/− cells and BAF3 cells after treatment with increasing concentrations of vehicle or small molecules. Cell viability was assessed after 48 h. Data represent means of technical triplicate from one representative experiment; fold change compared to Vehicle is shown. (C) Cell proliferation assay of URE−/− after treatment with DB1976 (n=5), DB2115 (n=3), DB2313 (n=3), of MOLM13 cells (n=3), and THP1 cells (n=3). Cell counting was performed every 24 h during 4 days. Data represent means±SD of technical triplicate from one representative experiment. Forward strand: SEQ ID NO:3, and Reverse strand: SEQ ID NO:4; derived from the λB motif from the murine Ig lambda 2-4 enhancer, a known native PU.1-dependent gene and specific binding site for PU.1. (D) Clonogenic capacities of URE−/− cells after treatment with DB1976 (n=5), DB2115 (n=3) and DB2313 (n=4) in the first plating, and after serial replatings (n=3). Data represent means±SD of technical triplicate from one representative experiment. (E) Apoptotic cells (Annexin-V+Dapi−) fraction in URE−/− cells after 48 h of treatment with DB1976 (n=6), DB2115 (n=6) and DB2313 (n=3). Data represent the means±SD of independent experiments; fold change compared to Vehicle is shown. *P<0.05, **P<0.01, ***P<0.001, ****P<0.0001 (F) Dose dependent inhibitor of PU.1-dependent transactivation.
To determine if our PU.1 inhibitors have an effect on PU.1^low-induced AML cells, we treated the PU.1 URE^−/− AML cell line with compounds at different concentrations. Treatment with the drugs led to a profound decrease in growth of PU.1 URE^−/− AML cells after 48 h whereas it had only minimal or no effects on control cells with normal PU.1 levels (BaF3), even at very high doses (FIG. 3A). […]

In test [2] the target is λB promoter DNA sequence. As to the kind of experiment: SPR binding of compounds to immobilized λB promoter DNA. Further details: species or system murine. The following applies: biosensor-SPR, 1:1 complex. The procedure: FIG. 8A-8C depicts (A) DB2313 synthesis (B-C) Representative SPR sensorgrams for compounds binding to the immobilized λB promoter DNA sequence: (B) DB2313 (KD=7±2 nM) and (C) DB1976 (KD=5±2 nM) as previously described (Munde et al., 2014). The solid black lines are best fit values for global kinetic fitting of the results with a single binding site function. Similar experiments with DB2115 gave a KD=1±2 nM. The plots are for the SPR signal (RU) versus time from injection of the compound over the sensorchip. From 0 to 180 seconds, compound is being injected (association) and after that only buffer flows over the chip. (B) From top to bottom: 10, 30, 40 nM. (C) From top to bottom: 5, 10, 15 nM.
To test whether these heterocyclic diamidines targeted cognate DNA binding sites for PU.1, we assessed binding to the λB motif by biosensor-surface plasmon resonance (SPR). Duplex DNA harboring the λB motif was immobilized on a streptavidin functionalized sensor chip with a dextran surface as described. The DNA was 5′-end labeled with biotin and captured on the sensor chip. Based on the known strong AT selectivity of these heterocyclic diamidines, they are expected to bind to the AT rich λB promoter sequence at the 5′ side of the 5′-GGAA-3′ PU.1 conserved recognition sequence. Sensorgrams obtained from the compounds-DNA association and disassociation reactions were used to determine equilibrium dissociation constants. The KD values indicate strong binding by all three compounds to form a 1:1 complex, and a binding K^D of 1±2 nM for DB2115 and 4-7 nM for DB1976 and DB2313 with the λB promoter.
(Surface plasmon resonance follows binding to a sensor surface in real time, without labels.)

Test [3] concerns PU.1 URE−/− AML cell line. As to the kind of experiment: Cell viability/growth of PU.1 URE−/− AML cells. It is filed as cell-based, murine. The following applies: Mus musculus. The method, then:
as §1
To determine if our PU.1 inhibitors have an effect on PU.1^low-induced AML cells, we treated the PU.1 URE^−/− AML cell line with compounds at different concentrations. Treatment with the drugs led to a profound decrease in growth of PU.1 URE^−/− AML cells after 48 h whereas it had only minimal or no effects on control cells with normal PU.1 levels (BaF3), even at very high doses (FIG. 3A). […] Similar to our observations with PU.1-directed shRNAs, treatment with pharmacological PU.1 inhibitors led to a significant 1.6-, 2- and 3.5-fold increase of apoptotic cells with DB1976, DB2115 and DB2313, respectively, in murine PU.1 URE^−/− AML cells (FIG. 3C), and similar effects in human MOLM13 cells.

[4] abbreviates: after 48 h, read-out: IC50 in PU.1 URE−/− AML.

Structures can show the parent of a compound that is named as a salt. Where two headings read alike, the source gives them in different places.

One may read the Kd as the constant that tells how readily two partners part at equilibrium. Low readings indicate a tighter complex, high ones a looser complex. With `N=C(N)c1ccc2nc(-c3ccc(-c4nc5ccc(C(=N)N)cc5[nH]4)[se]3)[nH]c2c1` [DB1976], in test [1], the “fold increase of apoptotic cells” value was 1.6 fold. Also, the Kd in test [2] turned out to be 5 ± 2 nM. For the same compound, in test [3] (setting [4]), the IC50 was 25000 nM.
With `N=C(N)c1ccc2nc(-c3ccc(OCCCCOc4ccc(-c5nc6ccc(C(=N)N)cc6[nH]5)cc4)cc3)[nH]c2c1` [DB2115], the “fold increase of apoptotic cells” value in test [1] stood at 2 fold. In addition, the Kd in test [2] was determined as 1 ± 2 nM. The IC50 in test [3] (setting [4]) amounted to 700 nM.
In the case of `CC(C)NC(=N)c1ccc2nc(-c3ccc(OCc4cccc(COc5ccc(-c6nc7ccc(C(=N)NC(C)C)cc7[nH]6)cc5)c4F)cc3)[nH]c2c1` [DB2313, 3-Bis{4[4(5)-N-isopropylamidinobenzimidazolyl]phenoxymethyl]}-2-fluorobenzene tetrahydrochloride], the “fold increase of apoptotic cells” value in test [1] stood at 3.5 fold. The compound further yielded a Kd in test [2] of 7 ± 2 nM. The IC50 in test [3] (setting [4]) and in test [3] (read-out: IC50 URE−/−) was 330 nM in each case.
